pKd: −log10 of the molar value.
Biological target: T1, BLEG-1 (B3 metallo-β-lactamase) (Shouchella lehensis, UniProt A0A060M4R1)
T1 construct: gene BleG1_2478; wild-type recombinant BLEG-1 (26 kDa), purified by Ni-NTA
Assay: circular dichroism titration ([…] nm, non-linear regression); hydrolysis assay at […] nm with the purified enzyme
Assay type: binding

T1 sequence (A0A060M4R1 entry or part of it): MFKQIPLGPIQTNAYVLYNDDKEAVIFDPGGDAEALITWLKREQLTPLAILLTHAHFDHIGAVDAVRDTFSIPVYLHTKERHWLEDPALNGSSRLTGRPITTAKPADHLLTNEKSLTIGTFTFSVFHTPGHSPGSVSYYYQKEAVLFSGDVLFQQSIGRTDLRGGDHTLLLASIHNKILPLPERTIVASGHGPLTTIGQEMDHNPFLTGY

CC1(C)S[C@@H]2[C@H](NC(=O)[C@H](N)c3ccccc3)C(=O)N2[C@H]1C(=O)O [ampicillin]
pKd: 5.82

Source: PMC10482274, “Probing the substrate binding modes and catalytic mechanisms of BLEG-1, a promiscuous B3 metallo-β-lactamase with glyoxalase II properties” (PLOS ONE, 2023)
